Where two headings read alike, the source gives them in different places.
Columns and labels:
[1] = system: serum and liver lipid levels in normal rats; experiment: Effects on relative liver weight, serum and liver lipid levels in normal rats (100 mg/kg, 7 days); assay type: in vivo, Male Wistar strain rats; conditions: for Liver lipid levels Ch / Liver lipid levels PL / Liver lipid levels TG / Serum lipid levels Ch / Serum lipid levels PL / Serum lipid levels TG / Relative liver weight / Liver lipid levels Ch, relative to Control (100) / Liver lipid levels PL, relative to Control (100) / Liver lipid levels TG, relative to Control (100) / Relative liver weight, relative to Control (100) / Serum lipid levels Ch, relative to Control (100) / Serum lipid levels PL, relative to Control (100) / Serum lipid levels TG, relative to Control (100): Table 1; for Liver lipid levels Ch / Liver lipid levels PL / Liver lipid levels TG / Serum lipid levels Ch / Serum lipid levels PL / Serum lipid levels TG: fasted overnight; for Liver lipid levels Ch / Liver lipid levels PL / Liver lipid levels TG / Serum lipid levels Ch / Serum lipid levels PL / Serum lipid levels TG / Relative liver weight: mean ± S.E. (n = 6); for Liver lipid levels Ch, relative to Control (100) / Liver lipid levels PL, relative to Control (100) / Liver lipid levels TG, relative to Control (100) / Relative liver weight, relative to Control (100) / Serum lipid levels Ch, relative to Control (100) / Serum lipid levels PL, relative to Control (100) / Serum lipid levels TG, relative to Control (100): in parentheses
Procedure: (1) Effects on relative liver weight, serum and liver lipid levels in normal rats
Male Wistar strain rats, weighing 180-210 g were orally administered the present compounds (X=Cl, n1 =2, 3, 4 and n2 =1) and 4-(4-chlorobenzyloxy)benzyl nicotinate (KCD-232), being X=Cl, n1 =1, n2 =1, respectively, which were suspended in 0.5% carboxymethyl cellulose (CMC) solution once a day at a dose of 100 mg/kg b.w. for 7 days. The last administration was occured in rats fasted overnight. At 4 hr later blood was withdrawn from jugular vein, clotted and centrifuged to obtain serum. The liver was rapidly removed and weighed. Total lipids were extracted from the serum and liver, and cholesterol (Ch), triglycerides (TG) and phospholipids (PL) levels were determined.

[2] = system: serum and liver lipid levels in rats; experiment: Serum and liver lipid levels and relative liver weight in rats (100 mg/kg, 10 days); assay type: in vivo, Male rats of the Wistar strain; conditions: for response vs control in vivo at 100 mg/kg: Rattus norvegicus, po; for response vs control in vivo at 100 mg/kg / Relative liver weight, relative to Control (100): in parentheses, Control = (100); for Liver lipid levels Ch / Liver lipid levels PL / Liver lipid levels TG / Relative liver weight / Serum lipid levels Ch / Serum lipid levels PL / Serum lipid levels TG: Mean ± S.E. (n = 9)
Procedure: (2) Male rats of the Wistar strain weighing 160-180 g were fed a stock deit (CE-2, Japan CLEA, Tokyo) and water ad libitum. The present compounds and KCD-232 were suspended, respectively, in a 0.5% of CMC solution and give orally to rats once a day at a dose of 100 mg/kg b.w. for 10 days.
Control rats were received the 0.5% CMC solution alone. The diet was withdrawn immediately after the last administration of compounds. Animals were sacrificed by decapitation 4 hr after the last administration and blood was collected, clotted and centrifuged to obtain serum. The liver was excised quickly and weighed. Total lipids were extracted from the serum and liver, and the levels of Ch, TG and PL were determined colorimetrically.

[3] = system: serum and liver lipid levels in rats; experiment: Serum and liver lipid levels and relative liver weight in rats (25 mg/kg, 10 days); assay type: in vivo, male Wistar rats; conditions: Table 4; for Liver lipid levels Ch / Liver lipid levels PL / Liver lipid levels TG / Relative liver weight / Serum lipid levels Ch / Serum lipid levels PL / Serum lipid levels TG: 25 mg/kg p.o. 10 days, Mean ± S.E. (n = 7); for Liver lipid levels Ch, relative to Control (100) / Liver lipid levels PL, relative to Control (100) / Liver lipid levels TG, relative to Control (100) / Relative liver weight, relative to Control (100) / Serum lipid levels Ch, relative to Control (100) / Serum lipid levels PL, relative to Control (100) / Serum lipid levels TG, relative to Control (100): in parentheses
Procedure: (3) The present compounds and KCD-232 were orally given to male Wistar rats weighing 160-180 g once a day at a dose of 25 mg/kg b.w. for 10 days. Rats were subjected to fast for 4 hr immediately after the last administration of compounds, thereafter they were sacrificed by decapitation and blood was collected, clotted and centrifuged to obtain serum. The liver was removed quickly and weighed. Total lipids were extracted from the serum and liver, and then the levels of total Ch, TG and PL were determined with colorimetric methods.

in vivo = conditions: mouse, po, p o, male ICR mice
Source text: The present compounds were given to 6 week-old male mice of the ICR strain and their acute toxicity was examined.

[4] = 240 h, Table 2, read-out: Liver lipid levels PL, relative to Control (100)
[5] = Table 2, read-out: Liver lipid levels Ch, relative to Control (100)
[6] = Table 2, read-out: Liver lipid levels TG, relative to Control (100)
[7] = Table 2, read-out: Serum lipid levels Ch, relative to Control (100)
[8] = Table 2, read-out: Serum lipid levels PL, relative to Control (100)
[9] = Table 2, read-out: Serum lipid levels TG, relative to Control (100)
[10] = Table 2, 100 mg/kg p.o. 10 days
[11] = Table 3, 100 mg/kg p.o. 10 days

O=C(OCc1ccc(OCc2ccc(Cl)cc2)cc1)c1cccnc1 [KCD-232, 4-(4-chlorobenzyloxy)benzyl nicotinate, reference compound]
Liver lipid levels Ch ([1]; 100 mg/kg p.o. 7 days): 3.88 ± 0.12 mg/g liver
Liver lipid levels PL ([1]; 100 mg/kg p.o. 7 days): 36.6 ± 0.7 mg/g liver
Liver lipid levels TG ([1]; 100 mg/kg p.o. 7 days): 21.45 ± 2.23 mg/g liver
Serum lipid levels Ch ([1]; 100 mg/kg p.o. 7 days): 58.5 ± 5 mg/dL
Serum lipid levels PL ([1]; 100 mg/kg p.o. 7 days): 77.7 ± 6.4 mg/dL
Serum lipid levels TG ([1]; 100 mg/kg p.o. 7 days): 23.4 ± 2.2 mg/dL
Relative liver weight ([1]; 100 mg/kg p.o. 7 days): 3.20 ± 0.10 g/100 g b.w.
Liver lipid levels Ch, relative to Control (100) [1]: 110
Liver lipid levels PL, relative to Control (100) [1]: 99
Liver lipid levels TG, relative to Control (100) [1]: 291
Relative liver weight, relative to Control (100) [1]: 104
Serum lipid levels Ch, relative to Control (100) [1]: 77
Serum lipid levels PL, relative to Control (100) [1]: 76
Serum lipid levels TG, relative to Control (100) [1]: 69
liver TG level (in words) ([1]; last administration in rats fasted overnight): remarkably rose liver TG level
response vs control in vivo at 100 mg/kg [2, 4]: 99.2%
response vs control in vivo at 100 mg/kg ([2]; 240 h, Table 3, read-out: Liver lipid levels PL, relative to Control (100)): 99.7%
response vs control in vivo at 100 mg/kg [2, 5]: 104%
response vs control in vivo at 100 mg/kg [2, 6]: 63.3%
response vs control in vivo at 100 mg/kg [2, 7]: 72.5%
response vs control in vivo at 100 mg/kg [2, 8]: 67.3%
response vs control in vivo at 100 mg/kg [2, 9]: 32.7%
response vs control in vivo at 100 mg/kg ([2]; Table 3, read-out: Liver lipid levels Ch, relative to Control (100)): 103%
response vs control in vivo at 100 mg/kg ([2]; Table 3, read-out: Liver lipid levels TG, relative to Control (100)): 65.2%
response vs control in vivo at 100 mg/kg ([2]; Table 3, read-out: Serum lipid levels Ch, relative to Control (100)): 70%
response vs control in vivo at 100 mg/kg ([2]; Table 3, read-out: Serum lipid levels PL, relative to Control (100)): 62.1%
response vs control in vivo at 100 mg/kg ([2]; Table 3, read-out: Serum lipid levels TG, relative to Control (100)): 36.1%
Liver lipid levels Ch [2, 10]: 3.15 ± 0.08 mg/g liver
Liver lipid levels PL [2, 10]: 37.8 ± 0.6 mg/g liver
Liver lipid levels TG [2, 10]: 4.00 ± 0.28 mg/g liver
Relative liver weight [2, 10]: 4.05 ± 0.05 g/100 g b.w.
Serum lipid levels Ch [2, 10]: 62.8 ± 3 mg/dL
Serum lipid levels PL [2, 10]: 100 ± 4.6 mg/dL
Serum lipid levels TG [2, 10]: 40.5 ± 2.7 mg/dL
Relative liver weight, relative to Control (100) ([2]; Table 2): 105
Liver lipid levels Ch [2, 11]: 2.39 ± 0.07 mg/g liver
Liver lipid levels PL [2, 11]: 36.1 ± 0.4 mg/g liver
Liver lipid levels TG [2, 11]: 4.67 ± 0.42 mg/g liver
Relative liver weight [2, 11]: 3.71 ± 0.07 g/100 g b.w.
Serum lipid levels Ch [2, 11]: 68.3 ± 3.1 mg/dL
Serum lipid levels PL [2, 11]: 96.8 ± 3.4 mg/dL
Serum lipid levels TG [2, 11]: 45.3 ± 3.5 mg/dL
Relative liver weight, relative to Control (100) ([2]; Table 3): 98
Liver lipid levels Ch [3]: 2.98 ± 0.08 mg/g liver
Liver lipid levels PL [3]: 40.2 ± 0.6 mg/g liver
Liver lipid levels TG [3]: 4.36 ± 0.65 mg/g liver
Relative liver weight [3]: 3.72 ± 0.07 g/100 g b.w.
Serum lipid levels Ch [3]: 63.5 ± 3.1 mg/dL
Serum lipid levels PL [3]: 89 ± 4.4 mg/dL
Serum lipid levels TG [3]: 31.3 ± 2.9 mg/dL
Liver lipid levels Ch, relative to Control (100) [3]: 91.7
Liver lipid levels PL, relative to Control (100) [3]: 105.8
Liver lipid levels TG, relative to Control (100) [3]: 58.6
Relative liver weight, relative to Control (100) [3]: 105
Serum lipid levels Ch, relative to Control (100) [3]: 81.4
Serum lipid levels PL, relative to Control (100) [3]: 82.3
Serum lipid levels TG, relative to Control (100) [3]: 82.8
LD50 (in vivo): 345 mg/kg

O=C(OCc1ccc(OCCCc2ccc(Cl)cc2)cc1)c1cccnc1 [n1=3, n2=1, 4-[3-(4-Chlorophenyl)propoxy]benzyl nicotinate]
serum Ch, TG and PL (in words) ([1]; 100 mg/kg p.o. 7 days, compared with control): significantly reduced serum Ch, TG and PL
Liver lipid levels Ch ([1]; 100 mg/kg p.o. 7 days): 3.57 ± 0.15 mg/g liver
Liver lipid levels PL ([1]; 100 mg/kg p.o. 7 days): 34.1 ± 1.8 mg/g liver
Liver lipid levels TG ([1]; 100 mg/kg p.o. 7 days): 5.95 ± 1.83 mg/g liver
Serum lipid levels Ch ([1]; 100 mg/kg p.o. 7 days): 48.4 ± 5.4 mg/dL
Serum lipid levels PL ([1]; 100 mg/kg p.o. 7 days): 64.4 ± 5.2 mg/dL
Serum lipid levels TG ([1]; 100 mg/kg p.o. 7 days): 18 ± 2.5 mg/dL
Relative liver weight ([1]; 100 mg/kg p.o. 7 days): 3.20 ± 0.06 g/100 g b.w.
Liver lipid levels Ch, relative to Control (100) [1]: 101
Liver lipid levels PL, relative to Control (100) [1]: 92
Liver lipid levels TG, relative to Control (100) [1]: 81
Relative liver weight, relative to Control (100) [1]: 104
Serum lipid levels Ch, relative to Control (100) [1]: 64
Serum lipid levels PL, relative to Control (100) [1]: 63
Serum lipid levels TG, relative to Control (100) [1]: 53
lipid lowering effects compared with KCD-232 (in words) ([2]; 100 mg/kg p.o. 10 days): the lipid lowering effects were superior to that of KCD-232
response vs control in vivo at 100 mg/kg [2, 4]: 104%
response vs control in vivo at 100 mg/kg [2, 5]: 101%
response vs control in vivo at 100 mg/kg [2, 6]: 59.3%
response vs control in vivo at 100 mg/kg [2, 7]: 71.9%
response vs control in vivo at 100 mg/kg [2, 8]: 65.2%
response vs control in vivo at 100 mg/kg [2, 9]: 24.7%
Liver lipid levels Ch [2, 10]: 3.09 ± 0.15 mg/g liver
Liver lipid levels PL [2, 10]: 39.8 ± 0.8 mg/g liver
Liver lipid levels TG [2, 10]: 3.75 ± 0.27 mg/g liver
Relative liver weight [2, 10]: 3.89 ± 0.10 g/100 g b.w.
Serum lipid levels Ch [2, 10]: 62.3 ± 3.1 mg/dL
Serum lipid levels PL [2, 10]: 96.8 ± 5 mg/dL
Serum lipid levels TG [2, 10]: 30.6 ± 2.8 mg/dL
Relative liver weight, relative to Control (100) ([2]; Table 2): 101
Liver lipid levels Ch [3]: 3.16 ± 0.13 mg/g liver
Liver lipid levels PL [3]: 40.3 ± 0.9 mg/g liver
Liver lipid levels TG [3]: 3.97 ± 0.35 mg/g liver
Relative liver weight [3]: 3.84 ± 0.13 g/100 g b.w.
Serum lipid levels Ch [3]: 60.3 ± 5.3 mg/dL
Serum lipid levels PL [3]: 83.2 ± 8.5 mg/dL
Serum lipid levels TG [3]: 24.2 ± 2.8 mg/dL
Liver lipid levels Ch, relative to Control (100) [3]: 97.2
Liver lipid levels PL, relative to Control (100) [3]: 106.1
Liver lipid levels TG, relative to Control (100) [3]: 53.4
Relative liver weight, relative to Control (100) [3]: 109
Serum lipid levels Ch, relative to Control (100) [3]: 76.9
Serum lipid levels PL, relative to Control (100) [3]: 76.9
Serum lipid levels TG, relative to Control (100) [3]: 64.0
LD50 (in vivo): > 4000 mg/kg

— patent publication US4556715A, “Nicotinic acid derivatives” (Kyorin Pharmaceutical Co., Ltd., priority 1980, dated 1985)
